PMC4224607 (Chemical communications (Cambridge, England), 2014)

Test: COPAS bead-based screening, background binding of the dye to library beads
Settings: TR-labeled lysine and TR-labeled hCAII

For `O=S(=O)([O-])c1cc(S(=O)(=O)Cl)ccc1C1=c2cc3c4c(c2Oc2c1cc1c5c2CCCN5CCC1)CCC[N+]=4CCC3` [TR], the “composition of positive peptides: positively charged amino acids” value was “reduced abundance of positively charged amino acids”.
